Like-named read-outs stand apart in the source and are kept apart here.
Columns and labels:
[1] = tested on: IL3 production in PHA-stimulated mouse spleen cells; assay: suppression of IL3 production in PHA-stimulated mouse spleen cells; format: cell-based; conditions: for inhibition at 0.01 µg/mL / inhibition at 0.1 µg/mL / inhibition at 1 µg/mL / inhibition at 10 µg/mL: Mus musculus, read-out: Suppression
Experimental: The supernatant of mouse allogenic MLC and the supernatant of PHA-stimulated mouse spleen cells culture were prepared in the same manner as in Experimental Example 6.
The IL3 activity in the supernatant described above was assayed as follows: IL3-dependent mouse cell line FDC-P2 cells were suspended in the RPMI1640 culture medium supplemented with 10% FCS to the concentration of 10^5 cells/ml, and 100 μl of the suspension was added to each well of 96-well microculture plates in which 100 μl per well of the two-fold serial dilutions of the supernatant described above had been placed. After culturing at 37° C. in an atmosphere of 5% carbon dioxide for 20 hours, 0.5 μCi/well of ^3 H-thymidine was added, and cultured for further 4 hours under the same conditions. After termination of the culture, the cells were harvested by a cell harvester, and the radioactivity incorporated into the cells was measured by a liquid scintillation counter. The IL3 activity was expressed in U/ml as the titer at the concentrations at which the amount of ^3 H-thymidine incorporated was 50% of the maximum.

[2] = tested on: IL2 production in mouse allogenic MLC; assay: suppression of IL2 production in mouse allogenic MLC; format: cell-based; conditions: for inhibition at 0.01 µg/mL / inhibition at 0.1 µg/mL / inhibition at 1 µg/mL / inhibition at 10 µg/mL: Mus musculus, 48 h, read-out: Suppression
Experimental: Mouse allogenic MLC was carried out as follows:
The respondor cell suspension and the stimulator cell suspension (0.5 ml each) prepared in the same way as in Experimental Example 1 together with 1 ml of test substance were added to 24-well multidishes, and cultured at 37° C. in an atmosphere of 5% carbon dioxide for 2 days. After termination of the culture, the supernatant was collected and used as the supernatant of mouse allogenic MLC.
The IL2 activity in the supernatants of mouse allogenic MLC and the supernatants of PHA-stimulated mouse spleen cells culture was assayed as follows: IL2-dependent mouse cell line CTLL-2 cells were suspended in the RPMI1640 culture medium supplemented with 30% FCS to the concentration of 10^5 cells/ml, and 100 μl of the suspension was added to each well of 96-well microculture plates in which 100 μl of the supernatant of the MLC described above had been placed. After culturing at 37° C. in an atmosphere of 5% carbon dioxide for 20 hours, 0.5 μCi/well of ^3 H-thymidine was added, and incubated for 4 hours under the same conditions. After termination of the culture, the cells were harvested by a cell harvester, and the radioactivity incorporated into the cells was measured by a liquid scintillation counter. IL2 activity was expressed in U/ml as the titer at various concentrations at which the ^3 H-thymidine incorporation was 50% of the maximum.

[3] = tested on: mouse spleen cells stimulated with pokeweed mitogen (PWM); assay: suppression of blastogenic response of mouse spleen cells by PWM; format: cell-based; conditions: for inhibition at 0.1 µg/mL / inhibition at 0.01 µg/mL / inhibition at 1 µg/mL: Mus musculus, 76 h; for inhibition at 0.1 µg/mL: read-out: Suppression
Experimental: (§1) The effect on the mouse blastogenic response of mouse spleen cells stimulated with phytohemagglutinin (PHA) or with pokeweed mitogen (PWM) was examined as follows:
(§2) The spleen was resected from 5- to 8-week-old male […] BALB/c mice, and single cell suspension of spleen cells was prepared by using the RPMI1640 culture medium supplemented with 5% FCS. After hemolytic treatment, the concentration of the suspension was adjusted to 5×10^6 cells/ml by using the RPMI1640 culture medium supplemented with 10^-4 M 2-mercaptoethanol and 20% FCS, to which PHA or PWM was added. One hundred μl of the cell suspension was added to each well of 96-well microculture plates to which 100 μl per well of the test solution had been added (5×10^5 mouse spleen cells per well). After culturing at 37° C. in an atmosphere of 5% carbon dioxide for 72 hours, 0.5 μCi/well of ^3 H-thymidine was added and cultured under the same conditions for further 4 hours. After termination of the culture, the cells were harvested by a cell harvester, and the radioactivity incorporated into the cells was measured by a liquid scintillation counter, which was used as the index of blastogenic response of mouse spleen cells.

[4] = cytotoxicity to tumor cell line PC-6; format: cell-based, human; conditions: human, pc-6 cells, read-out: Suppression
Experimental: (§3) Cytotoxicity to human tumor cell lines was examined as follows:
(§4) Cells of human cell lines, K562, MOLT4, U937, HL60, KATOIII, KB, PC-6, PC-14 and CCRF-CEM were separately suspended to the concentration of 2×10^5 cells/ml in the RPMI1640 culture medium supplemented with 20% FCS. Fifty μl of this suspension was added to each well of 96-well microculture plates to which 50 μl of the test solution had been added. After culturing at 37° C. in an atmosphere of 5% carbon dioxide for 72 hours, the absorbancy at 550 nm was measured in the same way as the colorimetry using MTT in Experimental Example 1, and the percent suppression was calculated in the same manner as in Experimental Example 14, which was used as the index of cytotoxicity.

PC-6 = assay: cytotoxicity to tumor cell line PC-6; format: cell-based, human
Experimental: as §3, §4

[5] = tested on: mouse spleen cells stimulated with phytohemagglutinin (PHA); assay: suppression of blastogenic response of mouse spleen cells by PHA; format: cell-based; conditions: PHA (1/100); for inhibition at 0.01 µg/mL / inhibition at 0.1 µg/mL / inhibition at 1 µg/mL: Mus musculus, 76 h
Experimental: as §1, §2

In the case of `CCCCCCC(=O)CCCCCC/C=C/CC(O)C(O)C(N)(CO)C(=O)O` (stereo not drawn) [Example 1], the IL3 activity ([1]; 0.01 μg/ml) is reported as 4.0 U/ml, the IL3 activity ([1]; 0.1 μg/ml) is reported as < 2 U/ml and the IL3 activity ([1]; 1 μg/ml) is reported as < 2 U/ml. For the same compound, the IL3 activity ([1]; 10 μg/ml) was < 2 U/ml, the inhibition at 0.01 µg/mL [1] was 76.6% and the inhibition at 0.1 µg/mL [1] was > 90%. For the same compound, the inhibition at 1 µg/mL [1] was > 90%, the inhibition at 10 µg/mL [1] was > 90% and the IL2 activity ([2]; 0.01 μg/ml) was 4.0 U/ml. The IL2 activity ([2]; 0.1 μg/ml) was 2.0 U/ml, the IL2 activity ([2]; 1 μg/ml) was 1.1 U/ml and the IL2 activity ([2]; 10 μg/ml) was < 1 U/ml. It also gave an inhibition at 0.01 µg/mL [2] of 59.2%, an inhibition at 0.1 µg/mL [2] of 79.6% and an inhibition at 1 µg/mL [2] of 88.8%. For the same compound, the inhibition at 10 µg/mL [2] was > 90%, the inhibition at 0.1 µg/mL [3] was 73.2% and the inhibition at 0.01 µg/mL ([3]; PWM (1/100), 0.01 μg/ml) was 61%. The inhibition at 1 µg/mL ([3]; PWM (1/100), 1 μg/ml) was 84.5%, the 3H-thymidine uptake ([3]; PWM (1/100), 0.01 μg/ml) was 13499 cpm and the 3H-thymidine uptake ([3]; PWM (1/100), 0.1 μg/ml) was 9895 cpm. It also gave a 3H-thymidine uptake ([3]; PWM (1/100), 1 μg/ml) of 6529 cpm, a cytotoxicity at 72 h ([4]; 0.1 μg/ml) of 9.9% and a cytotoxicity at 72 h ([4]; 1.0 μg/ml) of 23.2%. It also gave a cytotoxicity at 72 h ([4]; 100.0 μg/ml) of 100%, an Absorbancy (PC-6; 0.01 μg/ml) of 0.244 and an Absorbancy (PC-6; 0.1 μg/ml) of 0.245. For the same compound, the Absorbancy (PC-6; 1.0 μg/ml) was 0.209, the Absorbancy (PC-6; 10.0 μg/ml) was 0.202 and the Absorbancy (PC-6; 100.0 μg/ml) was 0.000. For the same compound, the inhibition at 0.01 µg/mL ([5]; 0.01 μg/ml) was 71.9%, the inhibition at 0.1 µg/mL ([5]; 0.1 μg/ml) was 66.8% and the inhibition at 1 µg/mL ([5]; 1 μg/ml) was 92.4%. It also gave a 3H-thymidine uptake ([5]; 0.01 μg/ml) of 3238 cpm, a 3H-thymidine uptake ([5]; 0.1 μg/ml) of 3624 cpm and a 3H-thymidine uptake ([5]; 1 μg/ml) of 1686 cpm.

`CCCCCCC(=O)CCCCCC/C=C/CC1OC(=O)C(N)(CO)C1O` (stereo not drawn) [Example 4] gave an IL3 activity ([1]; 0.01 μg/ml) of 9.1 U/ml, an IL3 activity ([1]; 0.1 μg/ml) of 2.8 U/ml and an IL3 activity ([1]; 1 μg/ml) of 2.3 U/ml. The IL3 activity ([1]; 10 μg/ml) was < 2 U/ml, the inhibition at 0.01 µg/mL ([1]; 0.01 μg/ml) was 46.8% and the inhibition at 0.1 µg/mL ([1]; 0.1 μg/ml) was 83.6%. The inhibition at 1 µg/mL ([1]; 1 μg/ml) was 86.5%, the inhibition at 10 µg/mL ([1]; 10 μg/ml) was > 90% and the IL2 activity ([2]; 0.01 μg/ml) was 4.0 U/ml. The IL2 activity ([2]; 0.1 μg/ml) was 1.7 U/ml, the IL2 activity ([2]; 1 μg/ml) was < 1 U/ml and the IL2 activity ([2]; 10 μg/ml) was < 1 U/ml. The inhibition at 0.01 µg/mL ([2]; 0.01 μg/ml) was 59.2%, the inhibition at 0.1 µg/mL ([2]; 0.1 μg/ml) was 82.7% and the inhibition at 1 µg/mL ([2]; 1 μg/ml) was > 90%. The inhibition at 10 µg/mL ([2]; 10 μg/ml) was > 90%, the inhibition at 0.01 µg/mL ([3]; PWM (1/100), 0.01 μg/ml) was 41.4% and the inhibition at 0.1 µg/mL ([3]; PWM (1/100), 0.1 μg/ml) was 75.1%. It also gave an inhibition at 1 µg/mL ([3]; PWM (1/100), 1 μg/ml) of 77.1%, a 3H-thymidine uptake ([3]; PWM (1/100), 0.01 μg/ml) of 19335 cpm and a 3H-thymidine uptake ([3]; PWM (1/100), 0.1 μg/ml) of 9325 cpm. It also gave a 3H-thymidine uptake ([3]; PWM (1/100), 1 μg/ml) of 8712 cpm, a cytotoxicity at 72 h ([4]; 0.1 μg/ml) of 15.1% and a cytotoxicity at 72 h ([4]; 1.0 μg/ml) of 6.2%. The cytotoxicity at 72 h ([4]; 10.0 μg/ml) was 6.9%, the cytotoxicity at 72 h ([4]; 100.0 μg/ml) was 95.2% and the Absorbancy (PC-6; 0.1 μg/ml) was 0.247. The Absorbancy (PC-6; 1.0 μg/ml) was 0.273, the Absorbancy (PC-6; 10.0 μg/ml) was 0.271 and the Absorbancy (PC-6; 100.0 μg/ml) was 0.014. For the same compound, the inhibition at 0.01 µg/mL ([5]; 0.01 μg/ml) was 34.5%, the inhibition at 0.1 µg/mL ([5]; 0.1 μg/ml) was 57.8% and the inhibition at 1 µg/mL ([5]; 1 μg/ml) was 71%. It also gave a 3H-thymidine uptake ([5]; 0.01 μg/ml) of 6074 cpm, a 3H-thymidine uptake ([5]; 0.1 μg/ml) of 4312 cpm and a 3H-thymidine uptake ([5]; 1 μg/ml) of 3308 cpm.

Reference: patent publication US5219884A, “Immunosuppressant” (Taito Co., Ltd., priority 1990, dated 1993)
